The source of these data is ChEMBL document CHEMBL4190187, “Discovery of pyrazolopyrimidine derivatives as novel inhibitors of ataxia telangiectasia and rad3 related protein (ATR)” (Bioorg Med Chem Lett, 2017).

A short description of data set [1]: Metabolic stability in human liver microsomes assessed as compound remaining at 1 uM in presence of NADPH as cofactor measured after 30 mins by LC-MS/MS method. The note with it: read-out: Stability. The format is ADME, microsome.
Data set [2] can be described thus: Metabolic stability in rat liver microsomes assessed as compound remaining at 1 uM in presence of NADPH as cofactor measured after 30 mins by LC-MS/MS method. The format is ADME, microsome. The note with it: read-out: Stability.
Data set [3] in a line: Metabolic stability in mouse liver microsomes assessed as compound remaining at 1 uM in presence of NADPH as cofactor measured after 30 mins by LC-MS/MS method. The format is ADME, microsome. The note with it: read-out: Stability. Background: Liver microsomes are a subcellular fraction often used to study metabolism.
The target in data set [4] is Serine/threonine-protein kinase ATR (Homo sapiens, UniProt Q13535). The data set is described as follows: Inhibition of human recombinant FLAG-tagged full length ATR expressed in mammalian cell line co-expressing human recombinant cMyc-tagged full length ATRIP.
Data set [5] deals with T1, Tyrosine-protein kinase BTK (Homo sapiens, UniProt Q06187). Nature of the data set: Inhibition of BTK (unknown origin).
Data set [6] has as its target Phosphatidylinositol 4,5-bisphosphate 3-kinase catalytic subunit delta isoform (Homo sapiens, UniProt O00329). The data set is described as follows: Inhibition of PI3Kdelta (unknown origin).
Data set [7] addresses T1, Tyrosine-protein kinase BTK. Nature of the data set: Inhibition of BTK (unknown origin) at 100 nM.
Data set [8] has as its target Phosphatidylinositol 4,5-bisphosphate 3-kinase catalytic subunit delta isoform (Homo sapiens) (UniProt O00329). The data set is described as follows: Inhibition of PI3Kdelta (unknown origin) at 100 nM.

Where “and” joins values, the source holds several entries; their conditions need not be identical. Equal entries are not always repeated. Bounds are passed on as bounds.

By IC50 is commonly meant the midpoint of a concentration-inhibition curve. By inhibition is commonly meant the drop in the measured response relative to a control, in per cent.

Serine/threonine-protein kinase ATR, sequence (Q13535 whole entry): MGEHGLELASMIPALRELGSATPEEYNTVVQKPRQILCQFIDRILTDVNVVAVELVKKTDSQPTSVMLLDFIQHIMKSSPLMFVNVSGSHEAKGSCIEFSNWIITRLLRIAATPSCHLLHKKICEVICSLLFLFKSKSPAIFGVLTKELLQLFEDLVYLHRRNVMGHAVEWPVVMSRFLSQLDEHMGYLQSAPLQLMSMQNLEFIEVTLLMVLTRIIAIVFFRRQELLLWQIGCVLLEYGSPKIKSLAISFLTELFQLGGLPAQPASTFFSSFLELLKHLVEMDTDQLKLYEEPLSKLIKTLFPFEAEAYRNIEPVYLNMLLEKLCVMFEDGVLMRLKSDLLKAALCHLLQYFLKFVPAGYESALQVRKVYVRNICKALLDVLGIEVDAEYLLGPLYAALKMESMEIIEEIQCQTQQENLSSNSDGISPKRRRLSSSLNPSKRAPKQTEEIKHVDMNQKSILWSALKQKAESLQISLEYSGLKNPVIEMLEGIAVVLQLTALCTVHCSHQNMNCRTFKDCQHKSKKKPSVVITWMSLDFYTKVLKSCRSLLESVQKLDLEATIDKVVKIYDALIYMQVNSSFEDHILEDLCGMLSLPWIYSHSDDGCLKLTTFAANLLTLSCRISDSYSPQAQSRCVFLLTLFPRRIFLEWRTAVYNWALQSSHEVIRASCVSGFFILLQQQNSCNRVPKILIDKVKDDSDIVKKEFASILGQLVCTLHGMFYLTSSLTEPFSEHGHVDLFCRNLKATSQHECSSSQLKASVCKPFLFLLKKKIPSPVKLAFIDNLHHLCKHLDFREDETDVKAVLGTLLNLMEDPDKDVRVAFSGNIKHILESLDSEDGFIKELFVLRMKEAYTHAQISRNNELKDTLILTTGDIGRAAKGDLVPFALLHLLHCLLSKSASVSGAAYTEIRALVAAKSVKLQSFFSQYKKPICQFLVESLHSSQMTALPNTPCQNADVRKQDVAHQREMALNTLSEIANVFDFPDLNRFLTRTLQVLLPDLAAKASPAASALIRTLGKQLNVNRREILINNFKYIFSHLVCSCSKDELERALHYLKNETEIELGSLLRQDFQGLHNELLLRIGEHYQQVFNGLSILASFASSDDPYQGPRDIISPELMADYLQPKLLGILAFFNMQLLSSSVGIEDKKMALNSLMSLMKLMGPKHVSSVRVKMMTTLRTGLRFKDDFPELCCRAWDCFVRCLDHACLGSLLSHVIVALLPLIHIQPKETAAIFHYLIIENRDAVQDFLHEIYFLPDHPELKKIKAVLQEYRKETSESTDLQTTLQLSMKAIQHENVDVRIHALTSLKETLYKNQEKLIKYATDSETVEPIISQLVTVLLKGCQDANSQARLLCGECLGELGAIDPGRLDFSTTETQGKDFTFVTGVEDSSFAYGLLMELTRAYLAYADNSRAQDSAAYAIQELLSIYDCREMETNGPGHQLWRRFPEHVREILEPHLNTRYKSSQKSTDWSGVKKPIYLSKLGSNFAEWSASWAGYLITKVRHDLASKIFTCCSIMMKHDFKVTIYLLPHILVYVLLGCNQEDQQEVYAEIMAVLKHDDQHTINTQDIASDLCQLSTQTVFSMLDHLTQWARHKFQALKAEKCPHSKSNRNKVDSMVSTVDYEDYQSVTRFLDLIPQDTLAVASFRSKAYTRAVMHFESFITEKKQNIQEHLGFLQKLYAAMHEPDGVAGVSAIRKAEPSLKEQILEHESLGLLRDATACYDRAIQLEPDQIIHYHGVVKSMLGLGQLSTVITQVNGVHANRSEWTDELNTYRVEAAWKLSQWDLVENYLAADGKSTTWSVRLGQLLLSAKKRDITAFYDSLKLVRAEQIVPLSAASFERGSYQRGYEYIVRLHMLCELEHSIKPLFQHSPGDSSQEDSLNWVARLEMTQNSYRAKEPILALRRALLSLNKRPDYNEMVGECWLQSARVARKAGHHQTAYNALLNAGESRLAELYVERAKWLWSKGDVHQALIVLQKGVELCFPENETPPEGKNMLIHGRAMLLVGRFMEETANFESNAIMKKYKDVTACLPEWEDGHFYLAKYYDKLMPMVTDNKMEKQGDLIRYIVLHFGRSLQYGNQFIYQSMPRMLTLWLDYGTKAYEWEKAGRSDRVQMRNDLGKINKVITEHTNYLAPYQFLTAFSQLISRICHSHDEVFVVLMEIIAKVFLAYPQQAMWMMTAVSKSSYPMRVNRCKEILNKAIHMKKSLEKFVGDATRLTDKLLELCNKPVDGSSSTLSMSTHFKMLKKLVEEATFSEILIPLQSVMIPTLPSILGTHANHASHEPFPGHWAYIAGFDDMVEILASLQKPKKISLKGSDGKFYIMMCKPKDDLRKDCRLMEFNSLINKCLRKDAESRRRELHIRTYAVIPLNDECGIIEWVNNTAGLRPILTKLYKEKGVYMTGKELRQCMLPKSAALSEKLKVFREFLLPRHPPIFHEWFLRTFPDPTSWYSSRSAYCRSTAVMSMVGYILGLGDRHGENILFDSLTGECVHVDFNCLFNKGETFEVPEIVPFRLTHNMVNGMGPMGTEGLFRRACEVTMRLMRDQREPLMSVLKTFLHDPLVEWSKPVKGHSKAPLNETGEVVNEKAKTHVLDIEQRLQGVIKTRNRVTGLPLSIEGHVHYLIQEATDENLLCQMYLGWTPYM
T1 sequence (Q06187 whole entry, canonical isoform): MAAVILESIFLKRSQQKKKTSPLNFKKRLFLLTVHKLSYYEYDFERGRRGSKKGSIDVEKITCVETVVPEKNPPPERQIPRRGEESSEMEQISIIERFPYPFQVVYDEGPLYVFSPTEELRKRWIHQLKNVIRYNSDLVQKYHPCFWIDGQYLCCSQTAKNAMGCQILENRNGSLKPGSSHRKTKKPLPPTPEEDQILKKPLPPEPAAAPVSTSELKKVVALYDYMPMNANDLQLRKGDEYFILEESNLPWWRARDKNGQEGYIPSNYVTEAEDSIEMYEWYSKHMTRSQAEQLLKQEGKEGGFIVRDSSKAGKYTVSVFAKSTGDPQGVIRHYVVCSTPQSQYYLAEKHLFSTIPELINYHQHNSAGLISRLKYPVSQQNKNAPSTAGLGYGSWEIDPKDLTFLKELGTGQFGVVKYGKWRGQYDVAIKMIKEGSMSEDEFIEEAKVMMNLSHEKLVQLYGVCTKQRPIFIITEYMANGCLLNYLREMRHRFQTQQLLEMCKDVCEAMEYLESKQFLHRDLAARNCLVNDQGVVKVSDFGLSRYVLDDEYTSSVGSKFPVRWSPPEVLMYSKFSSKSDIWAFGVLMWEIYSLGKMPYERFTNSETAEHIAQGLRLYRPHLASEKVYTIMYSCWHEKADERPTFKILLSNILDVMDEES
Phosphatidylinositol 4,5-bisphosphate 3-kinase catalytic subunit delta isoform, sequence (O00329 whole entry, canonical isoform): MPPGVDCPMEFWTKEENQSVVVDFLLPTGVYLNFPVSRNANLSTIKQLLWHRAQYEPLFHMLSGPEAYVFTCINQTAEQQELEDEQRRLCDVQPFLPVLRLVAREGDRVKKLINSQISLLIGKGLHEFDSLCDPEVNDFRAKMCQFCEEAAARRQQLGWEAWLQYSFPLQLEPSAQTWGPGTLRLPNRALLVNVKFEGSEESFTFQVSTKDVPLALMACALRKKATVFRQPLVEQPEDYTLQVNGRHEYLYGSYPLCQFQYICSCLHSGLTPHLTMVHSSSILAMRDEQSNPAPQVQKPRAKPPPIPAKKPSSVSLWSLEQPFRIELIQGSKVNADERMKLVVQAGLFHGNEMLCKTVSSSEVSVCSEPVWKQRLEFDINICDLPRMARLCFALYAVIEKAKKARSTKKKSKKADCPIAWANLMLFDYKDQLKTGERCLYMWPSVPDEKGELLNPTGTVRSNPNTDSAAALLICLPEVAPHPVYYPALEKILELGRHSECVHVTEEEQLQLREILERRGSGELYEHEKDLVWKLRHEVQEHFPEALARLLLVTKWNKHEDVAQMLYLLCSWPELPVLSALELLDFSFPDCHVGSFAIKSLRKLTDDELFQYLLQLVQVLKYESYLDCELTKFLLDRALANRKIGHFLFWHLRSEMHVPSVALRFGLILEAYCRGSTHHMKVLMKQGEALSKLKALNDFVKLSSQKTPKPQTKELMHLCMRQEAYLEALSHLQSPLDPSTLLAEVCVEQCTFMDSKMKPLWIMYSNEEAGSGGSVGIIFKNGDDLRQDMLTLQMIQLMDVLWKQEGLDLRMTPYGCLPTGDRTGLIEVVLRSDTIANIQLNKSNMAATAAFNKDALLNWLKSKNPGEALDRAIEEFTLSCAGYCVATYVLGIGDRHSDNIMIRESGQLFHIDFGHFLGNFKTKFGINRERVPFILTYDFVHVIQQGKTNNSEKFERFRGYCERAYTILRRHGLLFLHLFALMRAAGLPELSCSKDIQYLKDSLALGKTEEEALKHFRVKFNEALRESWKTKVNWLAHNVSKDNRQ
Phosphatidylinositol 4,5-bisphosphate 3-kinase catalytic subunit delta isoform (Homo sapiens), sequence (O00329 whole entry, canonical isoform): as above

For the compound `CNCc1ccc(-c2cc(-c3nc(-c4ccc(S(=O)(=O)C(C)C)cc4)cnc3N)on2)cc1` [BERZOSERTIB], the remaining at 0.5 h, 1 µM is 71% in data set [1], 80% in data set [2] and 77% in data set [3].

Take `Nc1ccnc2c1c(-c1cnc3[nH]ccc3c1)nn2C1CCc2ccccc2C1` (racemic): the IC50 in data set [4] is greater than 30000 nM.

In the case of `Nc1ncnc2c1c(-c1ccc(N3CCCC3)nc1)nn2C1CCc2ccccc2C1` (racemic), the IC50 in data set [4] was 19100 nM.

Turning to `Nc1nc2c(s1)CC(n1nc(-c3cc(F)c4[nH]ccc4c3)c3c(N)ncnc31)CC2` (configuration not stated), the IC50 is 2630 nM in data set [4], 22 nM in data set [5] and 307 nM in data set [6].

As to `CS(=O)(=O)N1CCC(n2nc(-c3cnc4[nH]ccc4c3)c3c(N)ncnc32)CC1`, the IC50 in data set [4] was 1320 nM.

As to `Nc1ncnc2c1c(-c1cnc3[nH]ccc3c1)nn2C1CCCC1`, the IC50 in data set [4] worked out at 1420 nM.

In the case of `Nc1ncnc2c1c(-c1cccnc1)nn2C1CCc2ccccc2C1` (racemic), the IC50 in data set [4] is greater than 30000 nM.

Consider `Nc1ncnc2c1c(-c1ccc(Br)c(O)c1)nn2C1Cc2ccccc2C1`, for which the IC50 in data set [4] came to 3560 nM.

Turning to `Nc1ncnc2c1c(-c1cnc3[nH]ccc3c1)nn2C1Cc2ccccc2C1`, the IC50 in data set [4] is 654 nM.

For `Nc1ncnc2c1c(-c1cnc3[nH]ccc3c1)nn2C1CCc2ccccc2C1` (stereo in doubt; 1), the IC50 in data set [4] was 304 nM.

`Nc1ncnc2c1c(-c1c[nH]c3ncccc13)nn2C1CCc2ccccc2C1` (racemic): the half-inhibitory concentration (IC50) in data set [4] is greater than 30000 nM.

On to `Nc1ncnc2c1c(-c1ccc(Br)c(O)c1)nn2C1CCc2ccccc21` (configuration not stated), for which the IC50 in data set [4] stood at 1860 nM.

With `Nc1ncnc2c1c(-c1cnc3[nH]ccc3c1)nn2C1CCc2ccccc2C1` (stereo in doubt; 1'), the IC50 in data set [4] was determined as 158 nM.

Regarding `Nc1nc2c(s1)CC(n1nc(-c3cnc4[nH]ccc4c3)c3c(N)ncnc31)CC2` (configuration not stated), the IC50 in data set [4] was 547 nM and 269 nM.

Regarding `Cn1ccc2cc(-c3nn(C4CCc5ccccc5C4)c4ncnc(N)c34)cnc21` (racemic), the half-maximal inhibitory concentration (IC50) in data set [4] came to 580 nM.

Regarding `Nc1ncnc2c1c(-c1cnc3[nH]c(=O)ccc3c1)nn2C1CCc2ccccc2C1` (racemic), in data set [4], the IC50 was determined as 22400 nM.

With `Nc1ncnc2c1c(-c1ccc3[nH]ccc3c1)nn2C1CCc2ccccc2C1` (racemic), the IC50 in data set [4] turned out to be 1590 nM.

For `c1ccc2c(c1)CCC(n1nc(-c3cnc4[nH]ccc4c3)c3cncnc31)C2` (racemic), in data set [4], the IC50 was greater than 30000 nM.

For the compound `Nc1ncnc2c1c(-c1cnc3[nH]ccc3c1)nn2C1CCc2ccccc2C1` (racemic) [listing 1 of 2 here], the IC50 in data set [4] turned out to be 212 nM.

For `Nc1ncnc2c1c(-c1cnc3cc[nH]c3c1)nn2C1CCc2ccccc2C1` (racemic), the IC50 in data set [4] came to 4620 nM.

`Nc1ncnc2c1c(-c1cnc3[nH]ccc3c1)nn2C1CCc2ccccc2C1` (racemic) [listing 2 of 2 here]: the results for the inhibition in data set [7] and in data set [8] were 24% and 52%, respectively.

Consider `Nc1ccc(-c2nn(C3CCc4ccccc4C3)c3ncnc(N)c23)cn1` (racemic), for which the IC50 in data set [4] was 19300 nM.
